Source: patent publication US20220315624A1, “THIOSTREPTON ANALOGS AND METHODS OF MAKING AND USING SAME” (YALE UNIVERSITY, priority 2019, published 2022)
≈ marks a conversion by molar mass, not a printed value. Like-named read-outs stand apart in the source and are kept apart here.

Key:
[1] = test system: E. faecalis ATCC 29212 VSE; experiment: MIC broth microdilution; type: cell-based; conditions: Enterococcus faecalis, ATCC29212
Procedure: (§1) Twenty-four test agents were shipped to Micromyx and stored at −20° C. until assayed. The compounds were dissolved in 100% DMSO at 6.46 mg/mL prior to testing. Comparator drugs were supplied by Micromyx and were handled as described below:
(§2) The test organisms for the assay were recent clinical isolates or reference strains acquired from the American Type Culture Collection (ATCC; Manassas, Va.). Upon receipt, the isolates were streaked onto Trypticase Soy Agar II+5% sheep blood (TSAB). Colonies were harvested from the plates and a cell suspension was prepared in Trypticase Soy Broth containing cryoprotectant. Aliquots were then frozen at −80° C. Prior to the assay, the frozen seeds of all bacterial isolates to be tested were thawed and streaked for isolation onto TSAB (BD/BBL, Sparks, Md.; Lot No. 9011894), and were incubated overnight at 35° C.
(§3) The test medium for all isolates was cation-adjusted Mueller Hinton broth (CAMHB; BD/BBL; Lot No. 8190586). CAMHB (Cation Adjusted Mueller Hinton Broth) was supplemented with 3% (v/v) lysed horse blood (LHB; Hemostat, Dixon, Calif.; Lot No. 474990) for the testing of streptococci.
(§4) MIC values were determined using a broth microdilution method as recommended by CLSI. Automated liquid handlers (Multidrop 384, Labsystems, Helsinki, Finland; Biomek 2000 and Biomek F/X, Beckman Coulter, Fullerton Calif.) were used to conduct serial dilutions and make liquid transfers.
(§5) The wells of standard 96-well microdilution plates (Costar 3795, Corning Inc., Corning, N.Y.) were filled with 150 μL of the appropriate diluent in columns 2-12 on the Multidrop 384 (DMSO for the thiostrepton analogs, deionized H2O for vancomycin and ceftazidime). These plates were used to prepare the drug “mother plate” which provided the serial drug dilutions for the replicate “daughter plates”. The compounds (300 μL) were dispensed at 101× the highest concentration to be tested into the appropriate row of the “mother plate”. The Biomek 2000 was used to transfer 150 μL of each stock solution from the wells in Column 1 of the mother plate to make ten subsequent 2-fold serial dilutions. The wells of Column 12 contained no drug and served as the organism growth control wells. The daughter plates were loaded with 190 μL of test medium using the Multidrop 384.
(§6) The daughter plates were prepared on the Biomek F/X instrument which transferred […] of drug solution from each well of the mother plate to each corresponding well of each daughter plate in a single step. The wells of the daughter plates ultimately contained 190 μL of media, 2 μL of drug solution, and 10 μL of inoculum prepared as described below. The final concentration of DMSO (if used as a solvent) in the test well was 1%.
(§7) A standardized inoculum of each organism was prepared per CLSI methods. A suspension of organisms from a fresh plate was prepared in CAMHB to equal the turbidity of a 0.5 McFarland standard. The suspensions were diluted 1:20 in CAMHB, or in the case of streptococci CAMHB with LHB. The inoculum for each organism was dispensed into sterile reservoirs divided by length (Beckman Coulter), and the Biomek 2000 was used to inoculate the plates. Daughter plates were placed on the Biomek 2000 work surface reversed so that inoculation took place from low to high drug concentration. The Biomek 2000 delivered 10 μL of standardized inoculum into each well. These dilutions yielded a final cell concentration in the daughter plates of approximately 5.0×10^5 CFU/mL.
(§8) Plates were stacked 3 high, covered with a lid on the top plate, placed in plastic bags, and incubated at 35° C. for 16-20 hr for all organisms except streptococci which were incubated for 20-24 hr. Following incubation, the microplates were removed from the incubator and viewed from the bottom using a plate viewer. The MIC was read and recorded as the lowest concentration of drug that inhibited visible growth of the organism. […]

[2] = test system: E. faecalis MMX 486 VRE; experiment: MIC broth microdilution; type: cell-based; conditions: Enterococcus faecalis
Procedure: as §1, §2, §3, §4, §5, §6, §7, §8

[3] = test system: E. faecium MMX 485 VRE; experiment: MIC broth microdilution; type: cell-based; conditions: Enterococcus faecium
Procedure: as §1, §2, §3, §4, §5, §6, §7, §8

[4] = test system: S. pneumoniae ATCC 49619 PISP; experiment: MIC broth microdilution; type: cell-based; conditions: Streptococcus pneumoniae, ATCC49619, 20 h
Procedure: as §1, §2, §3, §4, §5, §6, §7, §8

[5] = test system: E. faecium MMX 708 VSE; experiment: MIC broth microdilution; type: cell-based; conditions: Enterococcus faecium, MMX708VSE
Procedure: as §1, §2, §3, §4, §5, §6, §7, §8

[6] = test system: S. aureus ATCC 29213 MSSA; experiment: MIC broth microdilution; type: cell-based; conditions: Staphylococcus aureus
Procedure: as §1, §2, §3, §4, §5, §6, §7, §8

[7] = test system: E. coli ATCC 25922; experiment: MIC broth microdilution; type: cell-based; conditions: Escherichia coli, ATCC25922
Procedure: as §1, §2, §3, §4, §5, §6, §7, §8

[8] = test system: S. aureus MMX 8088 MRSA; experiment: MIC broth microdilution; type: cell-based; conditions: Staphylococcus aureus
Procedure: as §1, §2, §3, §4, §5, §6, §7, §8

[9] = test system: S. pyogenes ATCC 19615; experiment: MIC broth microdilution; type: cell-based; conditions: Streptococcus pyogenes, ATCC19615, 20 h
Procedure: as §1, §2, §3, §4, §5, §6, §7, §8

[10] = Un-inoculated solubility control plate (drug precipitation); type: physicochemical; conditions: for Precipitation in CAMHB: at 64 μg/mL in CAMHB
[11] = Aqueous solubility analysis in MOPS buffer; type: physicochemical; conditions: aqueous 10 mM MOPS buffer, thermodynamic from solid; after 24 hours in 10 mM aqueous MOPS buffer, pH 7.2
Procedure: A 2 dram vial was loaded with ˜0.5 mg of a thiostrepton derivative and suspended in ˜4 mL of aqueous 10 mM MOPS buffer (pKa 7.2). The suspension was stirred vigorously for 24 h to ensure equilibration, then filtered through a […] centrifuge filtration unit. A 3.0 mL aliquot was concentrated, and the dried residue was diluted with 0.30 mL of 1:1 1,4-dioxane/H2O (10× original concentration necessitated by detection limits). The total UV absorbance (200-300 nm) was measured in triplicate by UPLC runs with a photodiode array detector. A calibration curve for each compound was created using data points from 3 trials each of concentrations in 1:1 1,4-dioxane/H2O ranging from […]. These concentrations were plotted against their respective average absorbances. The experimental concentration of each compound was calculated by dividing the found μg/mL value by the residue concentration factor of 10 to yield the actual solubility value.

[12] = E. faecalis ATCC 29212 VSE, CAMHB, read-out: MIC
[13] = E. faecalis MMX 486 VRE, CAMHB, read-out: MIC
[14] = E. faecium MMX 485 VRE, CAMHB, read-out: MIC
[15] = S. pneumoniae ATCC 49619 PISP, CAMHB with 3% lysed horse blood, read-out: MIC
[16] = E. faecium MMX 708 VSE, CAMHB, read-out: MIC
[17] = S. aureus ATCC 29213 MSSA, CAMHB, read-out: MIC
[18] = E. coli ATCC 25922, CAMHB, read-out: MIC
[19] = S. aureus MMX 8088 MRSA, CAMHB, read-out: MIC
[20] = S. pyogenes ATCC 19615, CAMHB with 3% lysed horse blood, read-out: MIC

Row | MIC [1, 12] | MIC [2, 13] | MIC [3, 14] | MIC [4, 15] | MIC [5, 16] | MIC [6, 17] | MIC [7, 18] | MIC [8, 19] | MIC [9, 20] | Precipitation in CAMHB [10] | Compound | other results
1 | – | – | – | – | – | – | – | – | – | – | C=C(NC(=O)c1csc(C2=N[C@@H]3c4csc(n4)[C@H]4NC(=O)c5csc(n5)[C@H]([C@](C)(O)[C@@H](C)O)NC(=O)C5CSC(=N5)/C(=C/C)NC(=O)[C@H]([C@@H](C)O)NC(=O)c5csc(n5)[C@]3(CC2)NC(=O)[C@H](C)NC(=O)C(=C)NC(=O)[C@H](C)NC(=O)[C@H]([C@@H](C)CC)N[C@@H]2C=Cc3c([C@H](C)O)cc(nc3[C@H]2O)C(=O)O[C@@H]4C)n1)C(=O)NC(=CNC(=O)c1ccc(OC)cc1)C(N)=O [RJS-07] | MIC [1]: 2 µg/mL (≈ 1.1 µM); MIC ([2]; VRE): 1 µg/mL (≈ 0.551 µM); MIC ([3]; VRE): 1 µg/mL (≈ 0.551 µM); MIC [4]: 0.004 µg/mL (≈ 0.0022 µM); MIC [5]: 1 µg/mL (≈ 0.551 µM); MIC [6]: 1 µg/mL (≈ 0.551 µM); MIC [7]: > 64 µg/mL; MIC ([8]; MRSA): 2 µg/mL (≈ 1.1 µM); MIC [9]: 4 ng/mL (≈ 0.0022 µM)
2 | 0.5 µg/mL (≈ 0.268 µM) | 0.5 µg/mL (≈ 0.268 µM) | 0.5 µg/mL (≈ 0.268 µM) | < 0.001 µg/mL | 0.5 µg/mL (≈ 0.268 µM) | 1 µg/mL (≈ 0.537 µM) | > 64 µg/mL | 1 µg/mL (≈ 0.537 µM) | 2 ng/mL (≈ 0.00107 µM) | distinct precipitation | C=C(NC(=O)c1csc(C2=N[C@@H]3c4csc(n4)[C@H]4NC(=O)c5csc(n5)[C@H]([C@](C)(O)[C@@H](C)O)NC(=O)C5CSC(=N5)/C(=C/C)NC(=O)[C@H]([C@@H](C)O)NC(=O)c5csc(n5)[C@]3(CC2)NC(=O)[C@H](C)NC(=O)C(=C)NC(=O)[C@H](C)NC(=O)[C@H]([C@@H](C)CC)N[C@@H]2C=Cc3c([C@H](C)O)cc(nc3[C@H]2O)C(=O)O[C@@H]4C)n1)C(=O)NC(=CNC(=O)c1ccc(Br)cc1)C(N)=O [RJS-08] | Precipitation in CAMHB in LHB ([10]; at 64 μg/mL in CAMHB in LHB): distinct precipitation
3 | 1 µg/mL (≈ 0.557 µM) | 1 µg/mL (≈ 0.557 µM) | 1 µg/mL (≈ 0.557 µM) | 0.015 µg/mL (≈ 0.00835 µM) | 1 µg/mL (≈ 0.557 µM) | 1 µg/mL (≈ 0.557 µM) | > 64 µg/mL | 1 µg/mL (≈ 0.557 µM) | 15 ng/mL (≈ 0.00835 µM) | distinct precipitation | C=C(NC(=O)c1csc(C2=N[C@@H]3c4csc(n4)[C@H]4NC(=O)c5csc(n5)[C@H]([C@](C)(O)[C@@H](C)O)NC(=O)C5CSC(=N5)/C(=C/C)NC(=O)[C@H]([C@@H](C)O)NC(=O)c5csc(n5)[C@]3(CC2)NC(=O)[C@H](C)NC(=O)C(=C)NC(=O)[C@H](C)NC(=O)[C@H]([C@@H](C)CC)N[C@@H]2C=Cc3c([C@H](C)O)cc(nc3[C@H]2O)C(=O)O[C@@H]4C)n1)C(=O)NC(=CNC(=O)COCCOC)C(N)=O [RJS-10] | solubility at 24 h [11]: 19 µg/mL (≈ 10.6 µM)
4 | 2 µg/mL (≈ 1.05 µM) | 1 µg/mL (≈ 0.523 µM) | 1 µg/mL (≈ 0.523 µM) | 0.015 µg/mL (≈ 0.00784 µM) | 1 µg/mL (≈ 0.523 µM) | 1 µg/mL (≈ 0.523 µM) | > 64 µg/mL | 1 µg/mL (≈ 0.523 µM) | 15 ng/mL (≈ 0.00784 µM) | – | C=C(NC(=O)c1csc(C2=N[C@@H]3c4csc(n4)[C@H]4NC(=O)c5csc(n5)[C@H]([C@](C)(O)[C@@H](C)O)NC(=O)C5CSC(=N5)/C(=C/C)NC(=O)[C@H]([C@@H](C)O)NC(=O)c5csc(n5)[C@]3(CC2)NC(=O)[C@H](C)NC(=O)C(=C)NC(=O)[C@H](C)NC(=O)[C@H]([C@@H](C)CC)N[C@@H]2C=Cc3c([C@H](C)O)cc(nc3[C@H]2O)C(=O)O[C@@H]4C)n1)C(=O)NC(=CNC(=O)c1cccc(/C=N/OC(C)(C)C(=O)O)c1)C(N)=O [RJS-13] | –
